Earlier results on one molecule are cited in patent publication US20170027963A1, “DELIVERY OF NON-STEROIDAL AGENTS TO THE BRAIN VIA THE NASAL TRACT TO TREAT NEUROLOGICAL DISORDERS” (priority 2014, published 2017).

For the series the following is noted: prescribed ibuprofen for more than five years vs those who did not; US veterans aged 55 and older.

Take `CC(C)Cc1ccc(C(C)C(=O)O)cc1` (stereo not shown) [ibuprofen]: the “less likely to develop Alzheimer's disease” value is 40%.
